Source: US20130102829A1, “METHOD FOR TREATING OSTEOSARCOMA BY BORON NEUTRON CAPTURE THERAPY USING BORIC ACID AS A BORON DRUG” (National Tsing Hua University, priority 2011, published 2013)
Where two headings read alike, the source gives them in different places.

Assays:
brain tumors = settings: 1950s; cited from earlier work
[1] = 60 mg of ^10B stable isotope per kilogram of human body weight; cited from earlier work
[2] = oral administration of BA to rats or human; cited from earlier work
[3] = rat, in vivo
Excerpt: (§1) The experimental animals were divided into three groups; a tumor control group (in which the rats received implantation of tumor cells but not BNCT treatment), a high-dose BNCT group, and a low-dose BNCT group.
After the SD rats were implanted with tumor cells for 11 days, the BNCT treatment and subsequent evaluation of biological effects were commenced. Considering the pharmacokinetics and the changes in boron concentration distribution in the rats after the drug administration, BNCT irradiation was carried out at adequate times after administering boric acid. The rats were anesthetized by gas, then intravenously injected with a boric acid of 25 mg ^10B/kg BW. Fifteen minutes before the neutron irradiation, the rats were injected with Atropine and Zoletil to allow the rats to be anesthetized longer. […]
Boric acid (25 mg 10B/kg) were injected into the tumor-bearing rats via the tail vein before the irradiation. […] Consequently, the doses received in each of the organs were calculated according to the actual irradiation times and powers, along with simulations of dose rates in the rats' organs from the MCNP application. […]

[4] = in vivo and in vitro studies; binding to the cis-hydroxy groups; cited from earlier work
[5] = in vivo; cited from earlier work
UMR-106 osteosarcoma = system: UMR-106 osteosarcoma
Method: (§2) Male SD rats were the animals used in this osteosarcoma-bearing animal-model. Prior to the experiments, the rats were bred in cage for at least one week at temperature of 22° C. and humidity of 30-70%. An artificial lighting condition (12 h on/12 h off) was maintained in the room. The animal feeds and water were unlimited. The tumor cells used in the experiments were UMR-106 cell strain (Rat osteogenic sarcoma cell line, BCRC No: 60270). Firstly, obtained the UMR-106 tumor cells in exponential growth phase from a culture flask, then centrifuged the UMR-106 cells obtained by subculture method, followed by re-suspending the cells in a media without serum or antibiotics, and dividing the suspension into separate centrifuge microtubes. Placed the Matrigel Matrix (BD Bioscience), a syringe, and the centrifuge microtubes with the cell suspension on ice to be cooled for later use. Before implanting the tumor cells, the UMR-106 cell suspension was mixed with an equal amount of Matrigel first.
A SD rat was firstly anesthetized by using 2.5% Isoflurane (Halocarbon Laboratories, River Edge, N.J.), followed by shaving and disinfecting a surgical area on the rat for implanting the tumor cells. A 250 μL micro-syringe was fitted with a 25 gauge needle before extracting 200 μL of a mixed solution containing the cells and Matrigel (10×10^6 cells/200 μL). Then the needle was used to penetrate a SD rat's distal femur, which is the femoral condyle; the syringe was rotated in order to penetrate the femur and the spongy bone, and ensured it had protruded out of the femur by touching with a finger. Subsequently, 100 μL of the tumor cell solution was slowly injected into the extra-skeletal muscular tissues, and 100 μL of the solution was injected into the epiphysis and the metaphysis of the femur (at 0.5 cm deep from skin surface) after slowly retracting the needle. After the implantation, the rats were released back into the cage, and their activities and body conditions were monitored continuously. The animals were immunosuppressed by daily administration of cyclosporin A (10 mg/kg, Sandimmun®, Novartis) for total 7 days from the 3rd to the 9th day after UMR-106 cells injection.
as §1
After the SD rats were implanted with tumor cells for 11 days, the BNCT treatment and subsequent evaluation of biological effects were commenced. Considering the pharmacokinetics and the changes in boron concentration distribution in the rats after the drug administration, BNCT irradiation was carried out at adequate times after administering boric acid. The rats were anesthetized by gas, then intravenously injected with a boric acid of 25 mg ^10B/kg BW. Fifteen minutes before the neutron irradiation, the rats were injected with Atropine and Zoletil to allow the rats to be anesthetized longer. Each of the rats was placed on a fixing frame with its tumor-bearing area close to the beam aperture of the Tsing Hua Open-pool Reactor (THOR), and then neutron irradiation was performed at a specific neutron flux and irradiation time to achieve a certain total neutron fluence. For the reactor power at 1.2 MW, the neutron fluxes at the central beam exit were 1.34×10^8, 1.07×10^9, and 7.66×10^7 n/cm^2/sec, respectively for thermal, epithermal, and fast neutrons. [Liu, Y. H., Tsai, P. E., Liu, H. M., Jiang, S. H., “Characterization of a BNCT beam using neutron activation and indirect neutron radiography,” Radiation Measurements, vol. 45, pp. 1167-1170, 2010.] After the irradiation, the actual irradiation time and reactor power were adjusted by using the on-line neutron monitoring system for THOR.

[6] = rat, in vivo; remark: listed apart in the source
Method: Before measuring boron concentration of a sample, it needs to undergo microwave digestion first. A sample was initially placed into a Teflon high-pressure digestion vessel, then added with 3 mL of concentrated nitric acid (14N, 65%) and 0.5 mL of hydrogen peroxide (30-35%), and the vessel was sealed before placing the vessel into a microwave digestion system (MLS 1200 Milestone, Italia) for sample decomposition. […] The sample subsequently turned into a clear solution after complete digestion. After diluting the sample with deionized water, an Inductively Coupled Plasma Atomic Emission Spectrometer (ICP-AES, OPTIMA 2000 DV, PerkinElmer Instruments) was used to measure the boron concentration of the sample. For the conditions of the analysis, the temperature of argon plasma was set at 6000-7000 K; the analytical wavelength was set at 249.773 nm, and the liquid uptake rate was set at approximately 2 mL/min; the operating voltage after the formation of plasma was set at 40 V.
as §2
A SD rat was firstly anesthetized by using 2.5% Isoflurane (Halocarbon Laboratories, River Edge, N.J.), followed by shaving and disinfecting a surgical area on the rat for implanting the tumor cells. […] After the implantation, the rats were released back into the cage, and their activities and body conditions were monitored continuously. […]
Using the boric acid aqueous solution as a boron drug to do the animal experiments, drugs were administered to the osteosarcoma-bearing rats (six-week old, approximately 200-250 g in body weight) via tail vein injection, and the dose of the boric acid drugs was: 25 mg ^10B/kg BW. The rats' body weights needed to be measured and recorded before the experiments for preparing the boric acid aqueous solution. […]

Glioblastoma multiforme = settings: in vivo; cited from earlier work

O=BOB(O)OB(O)OB=O [Borax, sodium borate]
outcome of BNCT clinical trials (brain tumors): unsuccessful

OB(O)O [boric acid]
adverse effect of an injection dose of boric acid [1]: no permanent adverse effect | factor by which boron concentrations in bones exceeded those in blood [2]: 4 | gastro-intestinal reactions, weight loss and other discomfort after the irradiation [3]: temporary side-effects | affinity with hydroxyapatite of bone [4]: strong affinity | ratio of boron concentrations in blood and soft tissue [5]: one | histopathological finding of extra-skeletal tumor region (UMR-106 osteosarcoma; 80th day after BNCT, hematoxylin and eosin stain): no-viable tumor cells were found | reduction of the sizes of the tumors (UMR-106 osteosarcoma; 80th day after the irradiation): ~90% | bone healing on radiographs (UMR-106 osteosarcoma; high dose day 5 to 16, low dose day 5 to 23 after BNCT): the bone appeared to be healing gradually | relative tumor area (UMR-106 osteosarcoma; high-dose BNCT group (11.0 Gy), 5th day after BNCT, area divided by area on day of BNCT): 1.1 | relative tumor area (UMR-106 osteosarcoma; high-dose BNCT group, 10th day after BNCT): 0.7 | relative tumor area (UMR-106 osteosarcoma; high-dose BNCT group, 30th day after BNCT): 0.2 | relative tumor area (UMR-106 osteosarcoma; high-dose BNCT group, 60th day after BNCT): 0.2 | relative tumor area (UMR-106 osteosarcoma; high-dose BNCT group, 80th day after BNCT): 0.1 | relative tumor area (UMR-106 osteosarcoma; low-dose BNCT group (5.8 Gy), 5th day after BNCT): 1.3 | relative tumor area (UMR-106 osteosarcoma; low-dose BNCT group, 10th day after BNCT): 1.1 | relative tumor area (UMR-106 osteosarcoma; low-dose BNCT group, 30th day after BNCT): 0.3 | relative tumor area (UMR-106 osteosarcoma; low-dose BNCT group, 60th day after BNCT): 0.2 | relative tumor area (UMR-106 osteosarcoma; low-dose BNCT group, 80th day after BNCT): 0.2 | boron concentration of extra-skeletal tumor tissues relative to blood ([6]; male, Sprague-Dawley, 1 h): approximately 1.2 times | boron concentration of tumor-bearing distal femurs relative to blood ([6]; male, Sprague-Dawley, 1 h): approximately 2.1 times | boron concentration of tumor-bearing proximal femurs relative to blood ([6]; male, Sprague-Dawley, 1 h): approximately 2.6 times | boron concentrations in the soft tissues compared with blood [6]: similar

borocaptate sodium [BSH]
ratio of boron concentrations between tumors and normal tissues (Glioblastoma multiforme): does not result in higher ratio
